Like-named read-outs stand apart in the source and are kept apart here. *1 amine or outer side, *2 acyl side, *3 side chain or, on linkers, in order; H or OH if unused. Where a SMILES comes first, the peptide text is derived from it. Bridges are numbered along the chain shown (N, C = ends). [ ]: non-standard residue; d: D form. The star is where a group is joined. ξ: configuration not given here. X1 = COc1cc(C[C@H](N[*:1])C(=O)[*:2])ccc1C(=O)NO; NMeAla(4-thiazolyl) = CN[C@@H](Cc1cscn1)C(=O)O; NMePhe(3-Cl) = CN[C@@H](Cc1cccc(Cl)c1)C(=O)O; NMehPhe = CN[C@@H](CCc1ccccc1)C(=O)O; hhPhe = N[C@@H](CCCc1ccccc1)C(=O)O; NMeF = CN[C@@H](Cc1ccccc1)C(=O)O; NMeI = CC[C@H](C)[C@H](NC)C(=O)O; hPhe = N[C@@H](CCc1ccccc1)C(=O)O; 3Pal = N[C@@H](Cc1cccnc1)C(=O)O; NMeD = CN[C@@H](CC(=O)O)C(=O)O; NMeL = CN[C@@H](CC(C)C)C(=O)O; NMeV = CN[C@H](C(=O)O)C(C)C; NMeA = CN[C@@H](C)C(=O)O; Piperidide = C1CCN(*)CC1; dNMeA = CN[C@H](C)C(=O)O; NBuGly = CCCCNCC(=O)O; NPrGly = CCCNCC(=O)O; X2 = Fc1cncc(C*)c1; Bn = c1ccc(C*)cc1; ξS = NC(CO)C(=O)O; Sar = CNCC(=O)O; tBu = CC(C)(C)*
Columns and labels:
in vitro = settings: human

Structure (SMILES) | Caco-2 (Caco-2) | Papp (in vitro; Caco-2, Caco-2 (cm/sec)) | other results
CC[C@H](C)[C@@H]1NC(=O)[C@H](Cc2ccccc2)N(C)C(=O)CN(C)C(=O)C[C@@H](C(=O)N2CCCCC2)NC(=O)[C@H]([C@@H](C)CC)N(C)C(=O)C(COCc2ccccc2)NC(=O)[C@H](CC(C)C)N(C)C(=O)[C@H](Cc2ccccc2)N(C)C(=O)CN(C)C(=O)[C@H]([C@@H](C)O)NC(=O)[C@H](CC(C)C)N(C)C1=O (stereo partly drawn) [pd178] ([Sar][NMeF]I[NMeL]T[Sar][NMeF][NMeL][ξS](Bn)[NMeI]D-Piperidide; lactam N-11) | 2.5e-06 cm/s | 2.5 ×10⁻⁶ cm/s | 
CC(C)C[C@H]1C(=O)N[C@@H]([C@@H](C)O)C(=O)N(C)CC(=O)N(C)[C@@H](C(C)C)C(=O)N[C@@H](Cc2ccccc2)C(=O)N(C)[C@@H](Cc2cccc(Cl)c2)C(=O)N(C)[C@@H](CC(C)C)C(=O)N(C)[C@H](C(=O)N2CCCCC2)CC(=O)N2CCC[C@H]2C(=O)N[C@@H](Cc2ccccc2)C(=O)N[C@@H](COC(C)(C)C)C(=O)N1C [pd162] (PFS(tBu)[NMeL]T[Sar][NMeV]F[NMePhe(3-Cl)][NMeL][NMeD]-Piperidide; lactam N-11) | 1.2e-06 cm/s | 1.2 ×10⁻⁶ cm/s | 
CC(C)C[C@H]1C(=O)N[C@@H](COC(C)(C)C)C(=O)N(C)[C@@H](Cc2ccccc2)C(=O)N(C)[C@@H](C(C)C)C(=O)N[C@H](C(=O)N2CCCCC2)CC(=O)N[C@H](C(C)C)C(=O)N(C)[C@@H](Cc2ccccc2)C(=O)N[C@@H](COCc2cncc(F)c2)C(=O)N(C)[C@@H](CC(C)C)C(=O)N[C@@H]([C@@H](C)O)C(=O)N(C)CC(=O)N1C [pd180] ([dV][NMeF]S(X2)[NMeL]T[Sar][NMeL]S(tBu)[NMeF][NMeV]D-Piperidide; lactam N-11) |  | 2.4 ×10⁻⁶ cm/s | Caco-2 (cm/sec) (Caco-2): 2 4E−06 cm/sec
CC(C)C[C@@H]1NC(=O)[C@H](Cc2ccccc2)N(C)C(=O)[C@H](C)N(C)C(=O)C[C@@H](C(=O)N2CCCCC2)NC(=O)[C@H](C(C)C)N(C)C(=O)[C@H](Cc2ccccc2)N(C)C(=O)[C@H](COC(C)(C)C)NC(=O)[C@H](CC(C)C)N(C)C(=O)CN(C)C(=O)[C@H](Cc2cccnc2)NC(=O)[C@H](CC(C)C)N(C)C1=O [pd197] ([NMeA][NMeF]L[NMeL][3Pal][Sar][NMeL]S(tBu)[NMeF][NMeV]D-Piperidide; lactam N-11) | 3e-06 cm/s | 3 ×10⁻⁶ cm/s | 
CC(C)C[C@H]1C(=O)N[C@@H]([C@@H](C)O)C(=O)N(C)CC(=O)N(C)[C@@H](C(C)C)C(=O)N[C@@H](Cc2ccccc2)C(=O)N(C)[C@@H](Cc2cccc(Cl)c2)C(=O)N(C)[C@@H](CC(C)C)C(=O)N(C)[C@H](C(=O)N2CCCCC2)CC(=O)N(C)[C@H](C)C(=O)N[C@@H](Cc2ccccc2)C(=O)N[C@@H](COC(C)(C)C)C(=O)N1C [pd167] ([dNMeA]FS(tBu)[NMeL]T[Sar][NMeV]F[NMePhe(3-Cl)][NMeL][NMeD]-Piperidide; lactam N-11) | 1.7e-06 cm/s | 1.7 ×10⁻⁶ cm/s | 
CC[C@H](C)[C@H]1C(=O)N[C@@H]([C@@H](C)O)C(=O)N(C)CC(=O)N(C)[C@@H](CC(C)C)C(=O)N[C@H](C(=O)N2CCCCC2)CC(=O)N(C)[C@@H](C(C)C)C(=O)N[C@@H](COCc2cncc(F)c2)C(=O)N(C)[C@@H](CC(C)C)C(=O)N(C)[C@@H](Cc2ccccc2)C(=O)N[C@@H](CC(C)C)C(=O)N(C)[C@@H](Cc2ccccc2)C(=O)N1C [pd181] ([NMeV]S(X2)[NMeL][NMeF]L[NMeF][NMeI]T[Sar][NMeL]D-Piperidide; lactam N-11) | 1.1e-06 cm/s | 1.1 ×10⁻⁶ cm/s | 
CC(C)C[C@H]1C(=O)N(C)[C@@H](Cc2ccccc2)C(=O)N[C@H](C(=O)N2CCCCC2)CC(=O)N(C)[C@@H](C(C)C)C(=O)N[C@@H](C)C(=O)N(C)[C@@H](Cc2ccccc2)C(=O)N(C)[C@@H](CC(C)C)C(=O)N(C)CC(=O)N[C@@H]([C@@H](C)O)C(=O)N(C)[C@@H](C(C)C)C(=O)N[C@@H](CCc2ccccc2)C(=O)N1C [pd182] ([NMeV]A[NMeF][NMeL][Sar]T[NMeV][hPhe][NMeL][NMeF]D-Piperidide; lactam N-11) | 2.6e-06 cm/s | 2.6 ×10⁻⁶ cm/s | 
CC(C)C[C@@H]1NC(=O)[C@H](Cc2ccccc2)N(C)C(=O)[C@H]2CCCN2C(=O)C[C@@H](C(=O)N2CCCCC2)N(C)C(=O)[C@H](Cc2ccccc2)N(C)C(=O)[C@H](Cc2ccccc2)N(C)C(=O)[C@H](COC(C)(C)C)NC(=O)[C@H](C(C)C)N(C)C(=O)CN(C)C(=O)[C@H]([C@@H](C)O)NC(=O)[C@H](CC(C)C)N(C)C1=O [pd200] ([dP][NMeF]L[NMeL]T[Sar][NMeV]S(tBu)[NMeF][NMeF][NMeD]-Piperidide; lactam N-11) | 2.6e-06 cm/s | 2.6 ×10⁻⁶ cm/s | 
CCCCN1CC(=O)N(C)[C@@H](CC(C)C)C(=O)N[C@@H](COC(C)(C)C)C(=O)N(C)[C@@H]([C@@H](C)CC)C(=O)N(C)[C@@H](CC(C)C)C(=O)N[C@H](C(=O)N2CCCCC2)CC(=O)N[C@H](C)C(=O)N(C)[C@@H](Cc2ccccc2)C(=O)N[C@@H](Cc2ccc(C(=O)NO)c(OC)c2)C(=O)N(C)[C@@H](CC(C)C)C(=O)N[C@@H]([C@@H](C)O)C1=O [AP258] ([dA][NMeF][X1][NMeL]T[NBuGly][NMeL]S(tBu)[NMeI][NMeL]D-Piperidide; lactam N-11) |  | 0.03 ×10⁻⁶ cm/s | Caco-2 (Caco-2; human): 2e-08 cm/s
CC(C)C[C@H]1C(=O)N[C@@H](CCCc2ccccc2)C(=O)N(C)[C@@H](Cc2ccccc2)C(=O)N(C)[C@@H](C(C)C)C(=O)N[C@H](C(=O)N2CCCCC2)CC(=O)N[C@H](C)C(=O)N(C)[C@@H](Cc2ccccc2)C(=O)N[C@@H](C(C)C)C(=O)N(C)[C@@H](CC(C)C)C(=O)N[C@@H]([C@@H](C)O)C(=O)N(C)CC(=O)N1C [pd193] ([dA][NMeF]V[NMeL]T[Sar][NMeL][hhPhe][NMeF][NMeV]D-Piperidide; lactam N-11) | 1e-06 cm/s | 1 ×10⁻⁶ cm/s | 
CC(C)C[C@H]1C(=O)N[C@@H](COC(C)(C)C)C(=O)N(C)[C@@H](Cc2ccccc2)C(=O)N(C)[C@@H](C(C)C)C(=O)N[C@H](C(=O)N2CCCCC2)CC(=O)N[C@H](C)C(=O)N(C)[C@@H](Cc2ccccc2)C(=O)NC(COc2cccc(Cl)c2)C(=O)N(C)[C@@H](C(C)C)C(=O)N[C@@H]([C@@H](C)O)C(=O)N(C)CC(=O)N1C (stereo partly shown) [pd185] | 2.2e-06 cm/s | 2.2 ×10⁻⁶ cm/s | 
CC[C@H](C)[C@H]1C(=O)N[C@H](C(=O)N2CCCCC2)CC(=O)N(C)CC(=O)N(C)[C@@H](Cc2ccccc2)C(=O)N[C@@H](CCCc2ccccc2)C(=O)N(C)[C@@H](CC(C)C)C(=O)N[C@@H]([C@@H](C)O)C(=O)N(C)CC(=O)N(C)[C@@H](Cc2ccccc2)C(=O)N(C)[C@@H](CC(C)C)C(=O)N[C@@H](COC(C)(C)C)C(=O)N1C [pd189] ([Sar][NMeF][hhPhe][NMeL]T[Sar][NMeF][NMeL]S(tBu)[NMeI]D-Piperidide; lactam N-11) | 1.8e-06 cm/s | 1.8 ×10⁻⁶ cm/s | 
CC(C)C[C@H]1C(=O)N(C)[C@@H](Cc2ccccc2)C(=O)N[C@@H](COC(C)(C)C)C(=O)N(C)[C@@H](C)C(=O)N[C@H](C(=O)N2CCCCC2)CC(=O)N(C)[C@@H](C)C(=O)N(C)[C@@H](Cc2ccccc2)C(=O)N[C@@H](CCc2ccccc2)C(=O)N(C)[C@@H](CC(C)C)C(=O)N[C@@H]([C@@H](C)O)C(=O)N(C)CC(=O)N1C [pd183] ([NMeA][NMeF][hPhe][NMeL]T[Sar][NMeL][NMeF]S(tBu)[NMeA]D-Piperidide; lactam N-11) | 2.1e-06 cm/s | 2.1 ×10⁻⁶ cm/s | 
CC(C)C[C@H]1C(=O)N(C)[C@@H](CCc2ccccc2)C(=O)N[C@@H](COC(C)(C)C)C(=O)N(C)[C@@H](C)C(=O)N[C@H](C(=O)N2CCCCC2)CC(=O)N(C)[C@@H](C)C(=O)N(C)[C@@H](Cc2ccccc2)C(=O)N[C@@H](CCc2ccccc2)C(=O)N(C)[C@@H](CC(C)C)C(=O)N[C@@H]([C@@H](C)O)C(=O)N(C)CC(=O)N1C [pd184] ([NMeA][NMeF][hPhe][NMeL]T[Sar][NMeL][NMehPhe]S(tBu)[NMeA]D-Piperidide; lactam N-11) | 1.2e-06 cm/s | 1.2 ×10⁻⁶ cm/s | 
CC(C)C[C@@H]1NC(=O)[C@H](Cc2ccccc2)N(C)C(=O)[C@H](C)N(C)C(=O)C[C@@H](C(=O)N2CCCCC2)NC(=O)[C@H](CC(C)C)N(C)C(=O)[C@H](Cc2ccccc2)N(C)C(=O)[C@H](Cc2ccccc2)NC(=O)[C@H](Cc2cscn2)N(C)C(=O)[C@H](C)N(C)C(=O)[C@H](CC(C)C)N(C)C(=O)[C@H]([C@@H](C)O)NC1=O [pd238] ([NMeA][NMeF]LT[NMeL][NMeA][NMeAla(4-thiazolyl)]F[NMeF][NMeL]D-Piperidide; lactam N-11) |  |  | Caco-2 (cm/sec) Papp (Caco-2; human): 8.8e-08 cm/s; Papp (in vitro; Caco-2, Caco-2 (cm/sec) Papp): 0.096 ×10⁻⁶ cm/s
CC(C)C[C@H]1C(=O)N[C@@H]([C@@H](C)O)C(=O)N(C)CC(=O)N(C)[C@@H](C(C)C)C(=O)N[C@@H](Cc2ccccc2)C(=O)N(C)[C@@H](Cc2cccc(Cl)c2)C(=O)N(C)[C@@H](CC(C)C)C(=O)N(C)[C@H](C(=O)N2CCCCC2)CC(=O)N2CCC[C@@H]2C(=O)N[C@@H](Cc2ccccc2)C(=O)N[C@@H](COC(C)(C)C)C(=O)N1C [pd163] ([dP]FS(tBu)[NMeL]T[Sar][NMeV]F[NMePhe(3-Cl)][NMeL][NMeD]-Piperidide; lactam N-11) | 1.7e-06 cm/s | 1.7 ×10⁻⁶ cm/s | 
CCCN1CC(=O)N(C)[C@@H](CC(C)C)C(=O)N[C@@H](COC(C)(C)C)C(=O)N(C)[C@@H](Cc2ccccc2)C(=O)N(C)[C@@H](Cc2ccccc2)C(=O)N[C@H](C(=O)N2CCCCC2)CC(=O)N[C@H](C)C(=O)N(C)[C@@H](Cc2ccccc2)C(=O)N[C@@H](C(C)C)C(=O)N(C)[C@@H](CC(C)C)C(=O)N[C@@H]([C@@H](C)O)C1=O [pd194] ([dA][NMeF]V[NMeL]T[NPrGly][NMeL]S(tBu)[NMeF][NMeF]D-Piperidide; lactam N-11) | 5.3e-06 cm/s | 5.3 ×10⁻⁶ cm/s | 
